Structures can show the parent of a compound that is named as a salt. Activity calls are given as the source filed them. Cut-off read from the data, not from the text of the source, for most assays here: actives have a measured Kd and inactives only a lower limit.
Experiments:
[1] = molecular target: Protein-tyrosine kinase 6 (Homo sapiens, UniProt Q13882)
[2] = molecular target: Glycogen synthase kinase-3 alpha (Homo sapiens, UniProt P49840)
[3] = molecular target: Fibroblast growth factor receptor 1 (Homo sapiens, UniProt P11362)
[4] = molecular target: T1, STE20-related kinase adapter protein alpha (Homo sapiens, UniProt Q7RTN6)
T1 sequence (Q7RTN6 whole entry): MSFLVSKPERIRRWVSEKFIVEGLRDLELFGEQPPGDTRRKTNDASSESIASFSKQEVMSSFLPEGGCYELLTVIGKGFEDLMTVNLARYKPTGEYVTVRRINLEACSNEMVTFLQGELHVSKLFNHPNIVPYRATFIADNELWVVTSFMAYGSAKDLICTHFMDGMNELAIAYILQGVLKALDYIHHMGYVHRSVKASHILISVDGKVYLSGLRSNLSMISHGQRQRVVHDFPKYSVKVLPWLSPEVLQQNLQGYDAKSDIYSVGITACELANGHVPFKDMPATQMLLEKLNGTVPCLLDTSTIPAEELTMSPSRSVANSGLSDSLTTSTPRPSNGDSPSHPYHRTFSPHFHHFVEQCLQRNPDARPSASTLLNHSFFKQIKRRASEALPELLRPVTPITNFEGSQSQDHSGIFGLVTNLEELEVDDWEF

[5] = molecular target: GTP-binding nuclear protein Ran (Homo sapiens, UniProt P62826)
[6] = molecular target: T2, Mitogen-activated protein kinase kinase kinase kinase 2 (Homo sapiens, UniProt Q12851)
T2 sequence (Q12851 whole entry): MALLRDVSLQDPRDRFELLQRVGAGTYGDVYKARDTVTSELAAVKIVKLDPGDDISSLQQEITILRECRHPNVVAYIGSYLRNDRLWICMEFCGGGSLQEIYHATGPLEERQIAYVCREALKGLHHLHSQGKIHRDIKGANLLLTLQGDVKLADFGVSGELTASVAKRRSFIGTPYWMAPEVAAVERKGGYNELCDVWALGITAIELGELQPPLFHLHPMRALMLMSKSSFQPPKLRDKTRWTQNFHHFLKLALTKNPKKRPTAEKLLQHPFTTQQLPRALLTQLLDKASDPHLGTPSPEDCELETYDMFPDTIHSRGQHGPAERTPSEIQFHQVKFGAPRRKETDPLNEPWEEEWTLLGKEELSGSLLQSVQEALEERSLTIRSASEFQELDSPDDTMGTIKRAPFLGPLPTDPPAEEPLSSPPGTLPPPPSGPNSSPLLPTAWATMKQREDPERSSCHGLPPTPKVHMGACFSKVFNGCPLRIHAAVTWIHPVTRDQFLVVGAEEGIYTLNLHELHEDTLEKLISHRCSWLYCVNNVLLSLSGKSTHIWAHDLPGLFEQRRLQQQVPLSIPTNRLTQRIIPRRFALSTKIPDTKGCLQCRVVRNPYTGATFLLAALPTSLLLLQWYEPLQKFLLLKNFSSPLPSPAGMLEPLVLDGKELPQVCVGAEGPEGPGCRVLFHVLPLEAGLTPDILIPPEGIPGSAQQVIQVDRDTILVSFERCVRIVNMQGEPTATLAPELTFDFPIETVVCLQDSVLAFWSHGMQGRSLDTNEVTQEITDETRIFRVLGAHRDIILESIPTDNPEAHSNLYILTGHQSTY

[7] = molecular target: T3, Ribosyldihydronicotinamide dehydrogenase [quinone] (Homo sapiens, UniProt P16083)
T3 sequence (P16083 whole entry): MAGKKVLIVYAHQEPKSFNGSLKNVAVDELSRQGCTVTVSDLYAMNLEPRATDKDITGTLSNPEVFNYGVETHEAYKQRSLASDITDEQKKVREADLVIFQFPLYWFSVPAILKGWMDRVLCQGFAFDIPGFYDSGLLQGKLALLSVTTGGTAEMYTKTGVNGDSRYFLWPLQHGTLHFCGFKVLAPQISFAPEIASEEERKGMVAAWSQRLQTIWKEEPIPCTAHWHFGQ

[8] = molecular target: Serine/threonine-protein kinase MRCK gamma (Homo sapiens, UniProt Q6DT37)
[9] = molecular target: T4, DNA replication licensing factor MCM4 (Homo sapiens, UniProt P33991)
T4 sequence (P33991 whole entry): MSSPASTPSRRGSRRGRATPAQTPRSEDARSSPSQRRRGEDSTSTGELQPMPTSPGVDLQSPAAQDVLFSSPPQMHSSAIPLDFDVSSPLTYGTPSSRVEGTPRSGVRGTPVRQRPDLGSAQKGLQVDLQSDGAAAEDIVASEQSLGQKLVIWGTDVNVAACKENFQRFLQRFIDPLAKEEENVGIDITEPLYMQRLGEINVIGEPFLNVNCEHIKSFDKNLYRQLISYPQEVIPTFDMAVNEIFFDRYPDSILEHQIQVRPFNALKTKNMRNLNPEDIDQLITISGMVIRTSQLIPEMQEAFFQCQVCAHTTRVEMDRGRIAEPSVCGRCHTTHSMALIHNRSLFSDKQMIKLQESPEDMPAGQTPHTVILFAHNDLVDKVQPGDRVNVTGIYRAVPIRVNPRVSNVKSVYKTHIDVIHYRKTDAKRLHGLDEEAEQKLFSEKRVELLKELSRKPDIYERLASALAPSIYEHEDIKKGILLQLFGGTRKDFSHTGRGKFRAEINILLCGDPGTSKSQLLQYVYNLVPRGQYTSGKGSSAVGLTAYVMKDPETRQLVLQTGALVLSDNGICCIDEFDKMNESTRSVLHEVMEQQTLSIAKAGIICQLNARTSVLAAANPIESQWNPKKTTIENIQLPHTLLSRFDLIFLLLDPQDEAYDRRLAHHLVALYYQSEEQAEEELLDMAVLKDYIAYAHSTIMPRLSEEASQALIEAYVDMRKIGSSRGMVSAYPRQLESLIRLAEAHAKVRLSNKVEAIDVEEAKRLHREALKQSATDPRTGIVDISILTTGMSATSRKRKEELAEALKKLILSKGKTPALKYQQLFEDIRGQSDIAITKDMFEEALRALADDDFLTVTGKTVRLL
Note: in the data inactive means no Kd found up to 30 µM.

Serine/threonine-protein kinase MRCK gamma, sequence (Q6DT37 whole entry): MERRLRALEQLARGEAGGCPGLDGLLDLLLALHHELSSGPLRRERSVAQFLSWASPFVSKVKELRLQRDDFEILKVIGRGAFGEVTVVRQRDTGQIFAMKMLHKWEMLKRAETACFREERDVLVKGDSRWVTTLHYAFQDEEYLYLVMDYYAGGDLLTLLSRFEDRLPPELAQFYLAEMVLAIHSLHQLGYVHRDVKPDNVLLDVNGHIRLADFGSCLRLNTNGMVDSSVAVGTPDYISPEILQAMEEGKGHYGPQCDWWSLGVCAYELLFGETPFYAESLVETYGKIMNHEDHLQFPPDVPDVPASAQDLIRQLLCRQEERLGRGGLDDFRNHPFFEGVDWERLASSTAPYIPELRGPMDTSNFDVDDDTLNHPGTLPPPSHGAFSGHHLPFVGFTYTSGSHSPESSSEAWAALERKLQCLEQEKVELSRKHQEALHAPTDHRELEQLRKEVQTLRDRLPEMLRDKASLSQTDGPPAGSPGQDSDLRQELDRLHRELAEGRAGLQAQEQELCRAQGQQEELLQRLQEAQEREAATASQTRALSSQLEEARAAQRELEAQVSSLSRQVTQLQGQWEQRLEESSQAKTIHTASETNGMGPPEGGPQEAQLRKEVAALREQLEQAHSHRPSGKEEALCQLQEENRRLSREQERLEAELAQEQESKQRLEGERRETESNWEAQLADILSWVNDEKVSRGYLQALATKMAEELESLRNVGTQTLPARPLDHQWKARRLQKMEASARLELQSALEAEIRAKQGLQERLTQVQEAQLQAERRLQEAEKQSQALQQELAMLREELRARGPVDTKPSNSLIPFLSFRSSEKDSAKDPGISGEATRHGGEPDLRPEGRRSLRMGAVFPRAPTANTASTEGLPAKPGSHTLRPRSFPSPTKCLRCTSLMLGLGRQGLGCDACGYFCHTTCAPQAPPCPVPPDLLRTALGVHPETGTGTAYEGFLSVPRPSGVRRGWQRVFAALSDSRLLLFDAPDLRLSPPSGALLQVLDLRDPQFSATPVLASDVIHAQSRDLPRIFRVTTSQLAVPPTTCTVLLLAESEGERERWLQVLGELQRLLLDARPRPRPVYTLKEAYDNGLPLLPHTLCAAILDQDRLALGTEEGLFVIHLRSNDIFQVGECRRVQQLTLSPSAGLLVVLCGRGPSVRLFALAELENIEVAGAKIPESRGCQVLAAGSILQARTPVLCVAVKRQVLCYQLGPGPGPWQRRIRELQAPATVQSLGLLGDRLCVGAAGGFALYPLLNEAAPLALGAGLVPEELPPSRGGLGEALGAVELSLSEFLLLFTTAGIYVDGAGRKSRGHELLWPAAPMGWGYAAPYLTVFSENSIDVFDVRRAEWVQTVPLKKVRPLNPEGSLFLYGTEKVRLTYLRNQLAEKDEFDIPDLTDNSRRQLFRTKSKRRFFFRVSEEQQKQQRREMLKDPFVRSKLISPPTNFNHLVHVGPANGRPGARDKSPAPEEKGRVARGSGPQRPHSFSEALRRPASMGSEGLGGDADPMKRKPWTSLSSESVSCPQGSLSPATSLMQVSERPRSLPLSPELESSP
Protein-tyrosine kinase 6, sequence (Q13882 whole entry): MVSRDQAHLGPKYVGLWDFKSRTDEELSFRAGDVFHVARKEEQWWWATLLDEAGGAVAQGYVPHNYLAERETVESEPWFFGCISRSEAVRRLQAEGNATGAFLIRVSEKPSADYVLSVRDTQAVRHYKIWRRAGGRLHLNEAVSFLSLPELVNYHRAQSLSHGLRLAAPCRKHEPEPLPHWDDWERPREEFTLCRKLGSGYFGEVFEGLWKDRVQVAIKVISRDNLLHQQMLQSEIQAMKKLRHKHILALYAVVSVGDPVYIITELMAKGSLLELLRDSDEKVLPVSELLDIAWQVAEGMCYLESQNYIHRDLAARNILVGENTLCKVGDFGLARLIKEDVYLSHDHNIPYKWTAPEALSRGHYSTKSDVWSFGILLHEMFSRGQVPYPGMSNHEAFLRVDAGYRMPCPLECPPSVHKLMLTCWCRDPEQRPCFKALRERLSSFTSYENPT
Glycogen synthase kinase-3 alpha, sequence (P49840 whole entry): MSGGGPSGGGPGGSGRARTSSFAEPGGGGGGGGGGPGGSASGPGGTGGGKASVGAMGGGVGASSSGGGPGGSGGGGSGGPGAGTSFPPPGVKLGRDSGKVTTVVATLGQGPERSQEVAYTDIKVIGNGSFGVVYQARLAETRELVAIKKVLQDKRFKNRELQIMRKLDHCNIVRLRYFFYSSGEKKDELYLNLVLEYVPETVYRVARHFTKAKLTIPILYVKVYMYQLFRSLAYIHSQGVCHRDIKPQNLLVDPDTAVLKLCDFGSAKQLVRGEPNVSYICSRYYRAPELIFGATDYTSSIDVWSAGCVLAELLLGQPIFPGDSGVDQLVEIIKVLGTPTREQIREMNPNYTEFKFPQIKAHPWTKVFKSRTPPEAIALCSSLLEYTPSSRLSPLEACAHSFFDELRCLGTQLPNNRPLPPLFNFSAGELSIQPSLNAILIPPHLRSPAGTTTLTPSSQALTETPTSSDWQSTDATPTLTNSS
Fibroblast growth factor receptor 1, sequence (P11362 whole entry): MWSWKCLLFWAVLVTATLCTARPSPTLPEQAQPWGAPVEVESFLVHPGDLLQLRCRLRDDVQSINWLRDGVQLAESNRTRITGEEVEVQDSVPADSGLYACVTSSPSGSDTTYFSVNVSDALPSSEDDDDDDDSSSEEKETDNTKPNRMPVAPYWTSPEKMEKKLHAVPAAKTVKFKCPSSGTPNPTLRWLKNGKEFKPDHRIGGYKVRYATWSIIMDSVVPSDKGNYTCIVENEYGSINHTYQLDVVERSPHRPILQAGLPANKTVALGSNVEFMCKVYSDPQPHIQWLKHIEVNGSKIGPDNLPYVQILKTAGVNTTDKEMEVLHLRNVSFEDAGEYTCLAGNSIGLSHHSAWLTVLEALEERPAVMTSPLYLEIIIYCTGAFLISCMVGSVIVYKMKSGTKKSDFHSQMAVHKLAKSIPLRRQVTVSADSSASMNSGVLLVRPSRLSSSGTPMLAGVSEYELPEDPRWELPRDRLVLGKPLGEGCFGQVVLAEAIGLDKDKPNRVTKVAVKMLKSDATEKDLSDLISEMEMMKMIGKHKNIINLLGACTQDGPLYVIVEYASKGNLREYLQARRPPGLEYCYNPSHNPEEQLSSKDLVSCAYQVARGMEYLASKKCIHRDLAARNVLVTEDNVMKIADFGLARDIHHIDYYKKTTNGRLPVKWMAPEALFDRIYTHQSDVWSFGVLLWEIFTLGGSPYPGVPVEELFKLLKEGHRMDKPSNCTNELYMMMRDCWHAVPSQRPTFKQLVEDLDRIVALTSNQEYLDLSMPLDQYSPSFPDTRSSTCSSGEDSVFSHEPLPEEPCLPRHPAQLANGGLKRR

SMILES | Kd [1] | Kd [2] | Kd [3] | Kd [4] | Kd [5] | Kd [6] | Kd [7] | Kd [8] | Kd [9]
Cc1cc(Nc2ncc(Cl)c(Nc3ccccc3S(=O)(=O)C(C)C)n2)c(OC(C)C)cc1C1CCNCC1 [CERITINIB] | > 30 µM (inactive) | > 30 µM (inactive) | > 30 µM (inactive) | > 30 µM (inactive) | > 30 µM (inactive) | > 30 µM (inactive) | > 30 µM (inactive) | > 30 µM (inactive) | > 30 µM (inactive)
COc1c(OCCCN2CCOCC2)ccc2c1N=C(NC(=O)c1cnc(N)nc1)N1CCN=C21 [COPANLISIB] | > 30 µM (inactive) | > 30 µM (inactive) | > 30 µM (inactive) | > 30 µM (inactive) | > 30 µM (inactive) | > 30 µM (inactive) | > 30 µM (inactive) | > 30 µM (inactive) | > 30 µM (inactive)
COCC(=O)NC/C=C/c1ccc2ncnc(Nc3ccc(Oc4ccc(C)nc4)c(C)c3)c2c1 [CP-724714] | > 30 µM (inactive) | > 30 µM (inactive) | > 30 µM (inactive) | > 30 µM (inactive) | > 30 µM (inactive) | > 30 µM (inactive) | > 30 µM (inactive) | > 30 µM (inactive) | > 30 µM (inactive)
C#Cc1cccc(Nc2ncnc3cc(OC)c(OCCCCCCC(=O)NO)cc23)c1 [CUDC-101] | > 30 µM (inactive) | > 30 µM (inactive) | > 30 µM (inactive) | > 30 µM (inactive) | > 30 µM (inactive) | > 30 µM (inactive) | > 30 µM (inactive) | > 30 µM (inactive) | > 30 µM (inactive)
CCS(=O)(=O)N1CCN(c2ccc(Nc3ncc(C(N)=O)c(NC4CC4)n3)cc2)CC1 [Cerdulatinib Hydrochloride] | > 30 µM (inactive) | > 30 µM (inactive) | > 30 µM (inactive) | > 30 µM (inactive) | > 30 µM (inactive) | > 30 µM (inactive) | > 30 µM (inactive) | > 30 µM (inactive) | > 30 µM (inactive)
O=C(Nc1nc2cccc(-c3ccc(CN4CCS(=O)(=O)CC4)cc3)n2n1)C1CC1 [FILGOTINIB] | > 30 µM (inactive) | > 30 µM (inactive) | > 30 µM (inactive) | > 30 µM (inactive) | > 30 µM (inactive) | > 30 µM (inactive) | > 30 µM (inactive) | > 30 µM (inactive) | > 30 µM (inactive)
Cc1cccc(-c2nn3c(c2-c2ccnc4ccc(C(N)=O)cc24)CCC3)n1 [GALUNISERTIB] | > 30 µM (inactive) | > 30 µM (inactive) | > 30 µM (inactive) | > 30 µM (inactive) | > 30 µM (inactive) | > 30 µM (inactive) | > 30 µM (inactive) | > 30 µM (inactive) | > 30 µM (inactive)
CNC(=O)c1cccc2cc(Oc3ccnc4cc(OCC5(N)CC5)c(OC)cc34)ccc12 [LUCITANIB] | > 30 µM (inactive) | > 30 µM (inactive) | > 30 µM (inactive) | > 30 µM (inactive) | > 30 µM (inactive) | > 30 µM (inactive) | > 30 µM (inactive) | > 30 µM (inactive) | > 30 µM (inactive)
CNC(=O)c1nn(C)c2c1C(C)(C)Cc1cnc(Nc3ccc(N4CCN(C)CC4)cc3)nc1-2 [MILCICLIB] | > 30 µM (inactive) | > 30 µM (inactive) | 1.42 µM (active) | > 30 µM (inactive) | > 30 µM (inactive) | 14 µM (active) | > 30 µM (inactive) | > 30 µM (inactive) | > 30 µM (inactive)
NC1(c2ccc(-c3nc4ccn5c(=O)[nH]nc5c4cc3-c3ccccc3)cc2)CCC1 [MK-2206] | > 30 µM (inactive) | > 30 µM (inactive) | > 30 µM (inactive) | > 30 µM (inactive) | > 30 µM (inactive) | > 30 µM (inactive) | > 30 µM (inactive) | > 30 µM (inactive) | > 30 µM (inactive)
